Test results: article PMC2409523, “Hormonal impact of the 17α-hydroxylase/C17,20-lyase inhibitor abiraterone acetate (CB7630) in patients with prostate cancer” (British Journal of Cancer, 2004)
“And” between values parts separate entries of the source, which are not always exact repeats. Equal entries are not always repeated. Each block holds one compound with its values, some of them ahead of it.

Assays:
testosterone synthesis [1] = assay: Study A: single dose study in castrate males with prostate cancer, serum hormone levels; assay type: in vivo, human
Procedure: Significant suppression was defined as either testosterone <0.14 nmol l^−1 in individual patients with a pretreatment value of <0.6 nmol l^−1 or a ⩾75% reduction in individual patients with a pretreatment value of ⩾0.6 nmol l^−1.
This was a single-centre, open-label, phase one, single-dose study in which sequential cohorts of three medically or surgically castrate patients were to receive treatment at five dose levels: starting at 10 mg and increasing to 30, 100, 200 and 500 mg. […] A confirmatory testosterone level of between 0.2 and 2.0 nmol l^−1 was also required.
(§1) Serum samples for endocrine analysis were obtained at 0, 2, 4, 8 and 24 h on a single day in the week prior to treatment commencement and then on Days 1, 2, 3, 4 and 7. As the duration of testosterone suppression was longer than originally anticipated, additional samples were added on Days 10, 14 and 21. The serum samples were analysed for testosterone, cortisol, 17 α-hydroxyprogesterone (17HP), androstenedione, LH and follicle-stimulating hormone (FSH) using commercially available kits. However, the DPC Coat-a-count kit for testosterone was sensitised using a larger volume of sample/standard and extension of the standard curve. […] All endocrine analyses were conducted by radioimmunoassay except for LH and FSH, which were by enzyme immunoassay.

[2] = Safety and tolerability in the three phase one trials; assay type: in vivo, human
Procedure: Prior to the first dose of therapy a complete history, physical examination and assessment of performance status was performed on all patients. Full-blood count, electrolytes and creatinine, liver function, urinanalysis, electrocardiograph and chest X-ray were obtained from all patients. The ECG was repeated 6 h after dosing. On the day of therapy heart rate, blood pressure and temperature were recorded every 4 h and then daily at the time of blood sampling. Thereafter, full-blood count, electrolytes, creatinine and liver function were re-evaluated on Days 2 and 7. Toxicity was recorded using the NCI-CTG Expanded Common Toxicity Criteria V1.

cortisol synthesis = assay: Short Synacthen test in Study C; assay type: in vivo, human
Procedure: The schedule sampling differed slightly with samples removed at 0930 and 1730 on the day of treatment and thereafter in the morning on Days 2, 3, 4, 7, 8, 9, 10, 11, 14, 21 and 28. In Study C, a short Synacthen test was also performed prior to therapy and again around Day 11.

17α hydroxylation = system: 17α hydroxylation; set-up: method as in Barrie et al, 1994; Dowsett et al, 1988; conditions: preclinical studies, correlative evidence of inhibition of 17α hydroxylation; ref Barrie et al, 1994; Dowsett et al, 1988; cited from earlier work
testosterone synthesis [3] = assay: Study C: multiple dose study (Days 1–12) in noncastrate males with prostate cancer, serum hormone levels; assay type: in vivo, human
Procedure: If this level of suppression was achieved, then it was planned to escalate the doses still higher to establish whether further suppression of testosterone was possible. […] This was a three-centre, open-label, phase one, multidose study in which sequential cohorts of three noncastrate patients were to receive treatment with abiraterone daily for 12 days. […] The starting dose of 500 mg was based upon the data from the single-dose studies. It was planned that a dose level would be expanded to six patients if any patient experienced toxicity ⩾ Grade III or if there was a significant suppression of serum cortisol in one patient (defined as per Study B above). All patients were followed for 28 days for any sign of toxicity. […] The schedule sampling differed slightly with samples removed at 0930 and 1730 on the day of treatment and thereafter in the morning on Days 2, 3, 4, 7, 8, 9, 10, 11, 14, 21 and 28. In Study C, a short […] test was also performed prior to therapy and again around Day 11.

testosterone synthesis [4] = assay: Study B: single dose study in noncastrate males with prostate cancer, serum hormone levels; assay type: in vivo, human
Procedure: This was a single dose study in noncastrate males (testosterone level ⩾9.0 nmol l^−1) to determine the dose of abiraterone acetate that was sufficient to cause suppression of testosterone synthesis to castrate levels (⩽2.0 nmol l^−1).
This was a single-centre, open-label, phase one, single-dose study in which sequential cohorts of three noncastrate patients were to be treated at four dose levels: 200, 500, 650 and 800 mg. The starting dose of 200 mg was chosen when the results of study A were available.
All patients were required to have a normal testosterone level prior to study entry (i.e. ⩾9.0 nmol l^−1) as well as normal gonadotrophin levels (Luteinising Hormone (LH) ⩽13 IU l^−1).
as §1

[5] = Pharmacokinetics in patient plasma (LC-MS); assay type: in vivo, human; conditions: for Mean AUC: across all three studies
Procedure: Sample extracts were analysed by a fully validated liquid chromatography mass spectrometry method. The instrument consisted of Wisp Model 717 autosampler including a Model 600MS system controller with a quaternary U6K LC pump. A Finnigan MAT TSQ 700 triple quadrupole mass spectrometer was used as the detection system, together with Finnigan MAT ICIS and ICL software for data capture and processing (ThermoQuest Ltd, San Jose, CA, USA). The separation of analytes was performed on a Supelcosil LC-ABZ (5 μm, 250 × 4.6 mm) analytical column protected by a guard column (Supelco, Bellefonte, PA, USA). The mobile phase consisted of 570 ml of 20 mM ammonium acetate solution, 100 ml tetrahydrofuran and 1330 ml acetonitrile and was delivered at a flow rate of 1 ml min^−1 throughout the system. Column eluant was subjected to electrospray ionisation and monitored by selected ion monitoring (SIM) of protonated pseudo-molecular ions of authentic standards of abiraterone acetate and abiraterone, and GP488 (an analogue of abiraterone used as internal standard). For SIM, the scan width was 0.25 and the total scan time was 2.99 s. Also, heated capillary temperature=250°C, spray voltage=4.5 kV, collision offset=−49.9 V and electron multiplier voltage=1200 eV. Samples were extracted as follows: 50 μl of acetonitrile and 40 μl of 50 μM GP488 internal standard were added to 500 μl of patient plasma. […] The dried residue was reconstituted by vortexing in 150 μl of acetonitrile and transferred into autosampler vials. Aliquots (100 μl) of these samples were injected onto the LC column. […] A comprehensive PK profile (Cmax, Tmax, T1/2α T1/2 and Kabs) was determined for each patient. Pharmacokinetic parameters were evaluated using WinNonLin Software® and were conducted at The Institute of Cancer Research (Sutton). Blood was sampled for analysis of abiraterone concentration prior to drug administration and at the following times on Day 1: 30 min, 1, 2, 4, 6, 8 and 12 h. In the multidose study, samples were also drawn prior to treatment on Days 2, 3, 4, 7, 8, 9, 10, 11 and 14 with additional samples on Days 21 and 28. Samples (7 ml) were collected into vacutainer tubes (BD, Rutherford, NJ, USA) containing EDTA and immediately centrifuged to separate the plasma. At least 2 ml of plasma was transferred into polypropylene tubes (NUNC) and frozen at –20° until analysis.

[6] = set-up: method as in Barrie et al, 1994; Dowsett et al, 1988; conditions: rodent model, intraperitoneal administration; ref Barrie et al, 1994; Dowsett et al, 1988; cited from earlier work
[7] = target: 17α-hydroxylase/C17,20-lyase; set-up: method as in Barrie et al, 1997; Potter et al, 1995; conditions: inhibition of the 17α-hydroxylase/C17,20-lyase enzyme; ref Barrie et al, 1997; Potter et al, 1995; read-out: Kiapp; cited from earlier work
[8] = 500 mg daily Days 1–12, noncastrate patients
[9] = single oral dose 500 mg, noncastrate patients

- response to Synacthen (cortisol synthesis; 500 mg daily, all three patients, by Day 11): abnormal response
- mean change in cortisol in response to Synacthen (cortisol synthesis; 500 mg daily, by Day 11, baseline 294.3 nmol l^−1): 42 nmol/L
- mean change in cortisol in response to Synacthen (percent) (cortisol synthesis; 500 mg daily, by Day 11, baseline +77%): +10%
- cortisol response to the short Synacthen test (cortisol synthesis; 800 mg daily, all three patients, Day 11): abnormal
- mean change in cortisol levels in response to Synacthen (cortisol synthesis; 800 mg daily, by Day 11, baseline 385 nmol l^−1): 65.3 nmol/L
- mean change in cortisol levels in response to Synacthen (percent) (cortisol synthesis; 800 mg daily, by Day 11, baseline 120%): 23%
- serum cortisol levels (testosterone synthesis [3]; [8]): remained within normal limits
- fall of evening cortisol from baseline evening cortisol (testosterone synthesis [3]; multidose study, evening of Day 1, three patients): 60% and 71% and 69%
- change in cortisol level (testosterone synthesis [4]; single oral dose, noncastrate patients): No change
SMILES: CC(=O)O[C@H]1CC[C@@]2(C)C(=CC[C@@H]3[C@@H]2CC[C@]2(C)C(c4cccnc4)=CC[C@@H]32)C1 [abiraterone acetate]
- patients with suppression of testosterone levels to <0.14 nmol l^−1 (testosterone synthesis [1]; single dose of 500 mg, castrate males): four out of six
- grade three or four toxic events ([2]; all three trials): no grade three or four toxic events
- resting heart rate or blood pressure ([2]; all three trials): No alteration
- serious adverse events ([2]; all three trials): no serious adverse events attributable to treatment
- tolerability ([2]; all three trials): very well tolerated
- haematologic or biochemical effects ([2]; any dose level or schedule evaluated): No haematologic or biochemical effects
- systemic effects reported by individual patients ([2]; no relation to dose or schedule apparent): Headache, hot flushes, a mild increase in abdominal and testicular pain, and a transient depression in mood (all grade II)
- weight of the ventral prostate (17α hydroxylation): reduced weight of the ventral prostate
- testosterone level reached (testosterone synthesis [3]; 500 mg daily Days 1–12, all three noncastrate patients): ≤ 2.0 nmol/L
- duration of substantial testosterone suppression (testosterone synthesis [3]; [8]): up to 9 days
- time of maximal testosterone suppression (testosterone synthesis [3]; [8]): 1 to 3 days
- target testosterone level of ⩽0.7 nmol l^−1 (testosterone synthesis [3]; 500 mg daily Days 1–12, three noncastrate patients): did not reach the target level
- day on which target testosterone suppression (⩽0.7 nmol l^−1) was obtained (testosterone synthesis [3]; 800 mg daily Days 1–12, first patient): 1 days
- testosterone level (testosterone synthesis [3]; 800 mg daily, final patient, by Day 2): 1.7 nmol/L
- rise in LH (testosterone synthesis [3]; 800 mg daily, final patient, from Day 3): two-fold rise
- testosterone level (testosterone synthesis [3]; 800 mg daily, final patient, from Day 4): > 2.0 nmol/L
- testosterone levels for the duration of treatment (testosterone synthesis [3]; 800 mg daily, first patient): ≤ 2.0 nmol/L
- increase in LH (testosterone synthesis [3]; 800 mg daily, first patient, from Day 3): three-fold increase
- duration of target testosterone suppression (testosterone synthesis [3]; 800 mg daily, first patient, then reversed with rising LH): 3 days
- day on which target testosterone suppression (⩽0.7 nmol l^−1) was reached (testosterone synthesis [3]; 800 mg daily, second patient): 4 days
- testosterone level (testosterone synthesis [3]; 800 mg daily, second patient, Day 7, otherwise below target level): 0.77 nmol/L
- increase of Luteinising Hormone (LH) levels (testosterone synthesis [3]; 800 mg days 1–12, two out of three patients, overcame suppression within 3 days): two- to three-fold
- effect on FSH levels (testosterone synthesis [3]; 800 mg, repeat dose): no effect
- dose required to maintain testosterone suppression to target levels (testosterone synthesis [3]; repeat dose studies, noncastrate males): at least 800 mg
- LH levels (testosterone synthesis [4]; single oral dose 200 mg, noncastrate): did not alter
- level of testosterone relative to baseline (testosterone synthesis [4]; single oral dose 500 mg, noncastrate patients, Day 3, each case): less than 50%
- saturation of drug absorption ([5]; at the dose levels studied, all three studies combined): no evidence of saturation of drug absorption
- deacetylation [6]: rapid deacetylation

- serum cortisol level (testosterone synthesis [1]; one patient at 500 mg, Day 1, baseline 409 nmol l^−1, felt inconsistent with suppression due to drug): 81 nmol/L
- plasma levels of abiraterone ([5]; all doses greater than or equal to 200 mg): Detectable levels
- Mean AUC ([5]; dose 200 mg): 0.31 µM·h
- Mean AUC ([5]; dose 500 mg): 1.22 µM·h
- Mean AUC ([5]; dose 800 mg): 5.6 µM·h
SMILES: C[C@]12CC[C@H](O)CC1=CC[C@@H]1[C@@H]2CC[C@]2(C)C(c3cccnc3)=CC[C@@H]12 [abiraterone, 17-(3-pyridyl)androsta-5,16-dien-3β-ol]
- reduction in testosterone (testosterone synthesis [1]; single oral dose 200 mg, one castrate patient, within the first 24 h): 75%
- levels of 17-hydroxyprogesterone (testosterone synthesis [1]; single oral dose 500 mg, castrate males): no corresponding reduction
- mean androstenedione levels (testosterone synthesis [1]; single oral dose 500 mg, castrate males, around Day 2): reduction in mean androstenedione levels
- patients with reduction in testosterone to the target level (testosterone synthesis [1]; single oral dose 500 mg, first cohort of three castrate patients, target <0.14 nmol l^−1 or ⩾75% reduction): all three patients
- patients with target testosterone suppression (testosterone synthesis [1]; single oral dose 500 mg, three additional castrate patients): one of these patients
- days over which testosterone suppression was sustained (testosterone synthesis [1]; single oral dose 500 mg, two of the three castrate patients, post-therapy): 2 to 5 days
- effect on testosterone (testosterone synthesis [1]; single oral dose 10, 30 and 100 mg, castrate males): no consistent effect
- Ki [7]: 0.5 nM
- testosterone suppression (testosterone synthesis [4]; single oral dose 200 mg, first noncastrate patient): No testosterone suppression
- reduction in testosterone level from baseline (testosterone synthesis [4]; single oral dose 500 mg, all three noncastrate patients): more than 50%
- recovery of LH to pretreatment levels (testosterone synthesis [4]; [9]): ≤ 10 days
- recovery of testosterone to pretreatment levels after nadir (testosterone synthesis [4]; [9]): 6 to 9 days
- time of testosterone nadir (testosterone synthesis [4]; [9]): second day after therapy
- rise in LH levels (testosterone synthesis [4]; single oral dose 500 mg, noncastrate patients, maximal on Day 3): 47–75%
